Test results reported in article PMC8557474, “Reliability of the AR-CALUX®In Vitro Method Used to Detect Chemicals with (Anti)Androgen Activity: Results of an International Ring Trial” (Toxicological Sciences, 2021).
In brackets after ≈: the same amount, converted by molar mass. Read-outs that look alike come from different tables or passages of the source. Starred links: 1 amine or outer side, 2 acyl side, 3 side chain; linkers in the order of their positions; H or OH if unused. Positions of bridges follow the written chain, without caps; N, C: chain ends. Non-standard residues stand in square brackets, D forms with d. Residues, ends and D or L forms follow the SMILES beside them. Chains are numbered I, II in the order given. Actinocin(9to1) = Cc1c2oc3c(C)ccc(C(=O)[*:1])c3nc-2c(C(=O)[*:2])c(N)c1=O; NMeV = CN[C@H](C(=O)O)C(C)C; Sar = CNCC(=O)O

Columns and labels:
[1] = test system: androgen receptor; parameters: method as in Park et al., 2021; details: ref Park et al., 2021; cited from earlier work
[2] = test system: androgen receptor; details: ref OECD, 2020b; cited from earlier work
[3] = test system: androgen receptor; details: tested at high concentrations (10 µM); ref Sonneveld et al., (2005); cited from earlier work
[4] = test system: androgen receptor; parameters: method as in Kleinstreuer et al., 2017; details: ref Kleinstreuer et al., 2017; cited from earlier work
[5] = test system: AR-CALUX cell line (U2-OS); experiment: Cytotoxicity in the AR-CALUX assay (LDH leakage and visual inspection); assay type: cell-based, human; details: agonist assay
Procedure: (§1) Each test chemical was firstly tested at the highest soluble concentration, starting from 50 mg/ml. Subsequently, the test chemical was assessed with a prescreen run (dilution steps of 10) and simultaneously with the quantitative cytotoxicity test to determine (1) cytotoxic concentrations, (2) the response, and (3) the appropriate dose range to be tested. […] The cytotoxicity test was performed once more. Test chemicals were diluted in media and consisted of 8 serial dilutions. Each dilution was tested in triplicate.
Cytotoxicity was evaluated in both the agonist and antagonist assay and was carried out with the LDH test which can be performed in parallel to the agonist/antagonist assay and for which no extra plates have to be prepared. A drawback of this test is that the measurement will occur when leakage happens, ie, when the cell wall is degrading and thus the cell is dead. Early events in the onset of cell death cannot be measured with this test. For this reason, the AR-CALUX® method stated that the cytotoxicity of the exposed cells should also be assessed visually (microscopy).

[6] = target: T1, human androgen receptor (hAR) (Homo sapiens, UniProt P10275); experiment: AR-CALUX antagonist assay (medium spiked with DHT at EC50); assay type: cell-based; details: for AR-CALUX Antagonist classification: mean of classifications, specificity control taken into account
T1 construct: host or cells: U2-OS human osteosarcoma cells (ATCC HTB 96), stably transfected (AR-CALUX cell line)
T1 sequence (P10275 1-920): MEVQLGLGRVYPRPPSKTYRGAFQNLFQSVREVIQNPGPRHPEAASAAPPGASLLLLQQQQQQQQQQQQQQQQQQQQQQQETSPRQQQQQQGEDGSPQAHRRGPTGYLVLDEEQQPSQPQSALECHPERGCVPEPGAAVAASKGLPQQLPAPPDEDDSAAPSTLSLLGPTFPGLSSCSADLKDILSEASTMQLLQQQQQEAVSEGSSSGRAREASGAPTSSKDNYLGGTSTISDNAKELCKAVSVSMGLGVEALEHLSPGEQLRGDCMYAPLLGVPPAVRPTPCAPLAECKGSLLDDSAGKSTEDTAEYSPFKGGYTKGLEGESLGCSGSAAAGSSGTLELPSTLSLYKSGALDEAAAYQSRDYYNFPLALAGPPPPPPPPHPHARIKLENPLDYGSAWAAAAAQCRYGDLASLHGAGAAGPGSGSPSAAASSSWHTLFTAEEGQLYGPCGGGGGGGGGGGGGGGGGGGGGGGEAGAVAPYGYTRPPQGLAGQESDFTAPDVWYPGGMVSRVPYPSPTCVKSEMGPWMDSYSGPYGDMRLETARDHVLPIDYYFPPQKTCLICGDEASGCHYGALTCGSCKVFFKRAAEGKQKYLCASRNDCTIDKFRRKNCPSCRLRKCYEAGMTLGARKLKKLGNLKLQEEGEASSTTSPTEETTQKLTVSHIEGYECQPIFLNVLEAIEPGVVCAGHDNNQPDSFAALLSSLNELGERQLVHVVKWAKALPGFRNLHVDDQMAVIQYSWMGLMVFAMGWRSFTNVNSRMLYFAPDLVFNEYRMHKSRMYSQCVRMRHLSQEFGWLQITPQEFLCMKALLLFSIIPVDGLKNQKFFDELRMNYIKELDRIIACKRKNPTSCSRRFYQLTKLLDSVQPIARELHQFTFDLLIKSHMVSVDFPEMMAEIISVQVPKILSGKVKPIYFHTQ
Excerpt: (§2) The AR-CALUX® cell line was created by BioDetection Systems (BDS). It can be purchased from BDS with a license (https://www.biodetectionsystems.com). The human osteosarcoma cell line U2-OS (ATCC HTB 96) was transfected with 2 constructs: pSG5-neo-hAR carrying the cDNA of a human androgen receptor (hAR) under a constitutive promoter, and, a luciferase reporter gene which is preceded by a triple tandem of AREs in front of a TATA box (3x ARE Luc). […] The AR-CALUX® cell line was obtained from the test method developer BDS. EURL ECVAM prepared a master cell bank and a large working cell bank which were tested for the absence of mycoplasma, bacteria, fungi, and yeast and for the absence of Hepatitis B and C and HIV. In addition, to verifying the authenticity of the cell line, Short Tandem Repeat (STR) profiling was carried out to confirm the test system to be U2-OS cells. […] The laboratories were requested, at the end of each part of the study (Parts 1, 2, and 3), to perform a mycoplasma test of their choice. Additional aliquots were sent to EURL ECVAM for a reanalysis of authenticity.
as §1, with “Subsequently,” for “Each test chemical was firstly tested at the highest soluble concentration, starting from 50 mg/ml. Subsequently,”
(§3) Each experiment (run) was comprised of a maximum of 6 plates. The first plate would contain 8 serial dilutions of the reference chemical DHT (for agonism) or Flutamide (for antagonism), while the positive and negative controls were added at fixed concentrations. In addition, a solvent control was added (medium without the chemical but with DMSO 0.1%).
(§4) For the antagonist assay, the medium was supplemented with DHT at EC50 concentration (standard assay). […] Each antagonist assay was accompanied by a specificity control test carried out on the same plate.
A. Positive (competitive antagonist) when the relative induction (Yc) of the test item is ≤ 80% (REF RPC80) for two or more consecutive concentrations and […]

[7] = target: T1, human androgen receptor (hAR); experiment: cell-based; assay type: cell-based
Excerpt: as §2
as §1, with “Subsequently,” for “Each test chemical was firstly tested at the highest soluble concentration, starting from 50 mg/ml. Subsequently,”
as §3
A. Positive when the relative induction (Yc) of the test item is ≥ 10% (REF RPC10) for two or more consecutive concentrations.

[8] = target: T1, human androgen receptor (hAR); assay type: cell-based; details: for Classification Run1: run 1; for Classification Run3: run 3; for Shift Direction of specificity control dose response: vs standard antagonist dose response
Excerpt: as §4
the square of the correlation coefficient (R^2) is ≤ 0.9 between the relative induction of the test item (Yc) and its specificity control (Sc)

[9] = physchem
Procedure: It details the cell cultivation and seeding procedure, the preparation of the reference, control and test chemicals, the procedure for agonist testing and antagonist testing, prescreen runs, and comprehensive runs, as well as data analysis and data interpretation. This SOP also includes references to the SOPs for solubility testing and cytotoxicity testing. […] Solubility was tested both in the solvent and in media under similar circumstances as would be required during the (ant)agonist testing. The initial concentration to be tested was prescribed at 50 mg/ml. Starting from the highest soluble concentration, cytotoxicity was determined with an LDH assay. Visual checking of cytotoxicity in all wells of the plate was however also required for each run.
This included an investigation by heating, centrifugation, microscopy, and visual checking. […] For the purpose of the validation study, the labs were requested to start from 50 mg/ml as the maximal stock concentration to be tested.

[10] = test system: androgen receptor; parameters: method as in Park et al., 2021; details: ref Park et al., 2021; cited from earlier work; remark: listed apart in the source

For C#C[C@]1(O)CC[C@H]2[C@@H]3CCc4cc(O)ccc4[C@H]3CC[C@@]21C [17α-Ethynyl estradiol], the “22Rv1/MMTV/GR-KO TA agonist result in words” value [1] is listed as “positive” and the “AR-EcoScreen agonist result in words” value [2] is listed as “negative”.
In the case of CC(=O)[C@H]1CC[C@H]2[C@@H]3CCC4=CC(=O)CC[C@]4(C)[C@H]3CC[C@]12C [Progesterone], the “22Rv1/MMTV/GR-KO TA agonist result in words” value [1] is listed as “positive” and the “RTA in comparison to DHT” value [3] is listed as 36%.
In the case of CC(=O)O[C@]1(C(C)=O)CC[C@H]2[C@@H]3C=C(Cl)C4=CC(=O)[C@@H]5C[C@@H]5[C@]4(C)[C@H]3CC[C@@]21C [Cyproterone acetate], the “AR-Reference list agonist result in words” value [4] is listed as “weak positive” and the highest nontoxic concentration [5] is listed as 3 µM.
For CC(C)(O)C(=O)Nc1ccc([N+](=O)[O-])c(C(F)(F)F)c1 [Hydroxyflutamide], the “22Rv1/MMTV/GR-KO TA agonist result in words” value [1] is given as “positive”, the “Antagonist classification per run, Lab 1” value [6] is given as “P P P” and the “Antagonist classification per run, Lab 2” value [6] is given as “P P P”. For the same molecule, the “Antagonist classification per run, Lab 3” value [6] was “P P P”, the “Antagonist classification per run, Lab 4” value [6] was “P P P” and the “AR-EcoScreen agonist result in words” value [2] was “negative”. For the same molecule, the “AR-CALUX agonist result in words” value [7] was “negative”, the “Agonist classification per run, Lab 1” value [7] was “N N N” and the “Agonist classification per run, Lab 2” value [7] was “N N N”. The “Agonist classification per run, Lab 3” value [7] was “N N N” and the “Agonist classification per run, Lab 4” value [7] was “N N N”.
For Cc1c2oc3c(C)ccc(C(=O)N[C@@H]4C(=O)N[C@H](C(C)C)C(=O)N5CCC[C@H]5C(=O)N(C)CC(=O)N(C)[C@@H](C(C)C)C(=O)O[C@@H]4C)c3nc-2c(C(=O)N[C@@H]2C(=O)N[C@H](C(C)C)C(=O)N3CCC[C@H]3C(=O)N(C)CC(=O)N(C)[C@@H](C(C)C)C(=O)O[C@@H]2C)c(N)c1=O [Actinomycin D] (I: T[dV]P[Sar][NMeV] / II: T[dV]P[Sar][NMeV]; ester I:1-I:C, II:1-II:C; linker I:N-II:N via Actinocin(9to1)), the “AR-CALUX antagonist result in words” value [6] was “false positive response”, the “AR-CALUX Antagonist classification” value [6] was “N(FP)” and the “Scn (normalized dose response for the specificity control)” value [8] was greater than 80%. For the same molecule, the “Classification Run1” value ([8]; antagonist) was “N”, the “Classification Run2” value ([8]; antagonist, run 2) was “N(FP)” and the “Classification Run3” value ([8]; antagonist) was “N(FP)”. For the same molecule, the “Shift Direction of specificity control dose response” value [8] was “Right”.
Work on CC(C)(c1ccc(O)cc1)c1ccc(O)cc1 [Bisphenol A] yielded a solubility ([9]; aqueous buffer, kinetic from dmso stock, Solubility in medium, Lab 1) of 0.015 mg/mL (≈ 65.7 µM), a solubility ([9]; aqueous buffer, kinetic from dmso stock, Solubility in medium, Lab 2) greater than 0.05 mg/mL and a solubility ([9]; aqueous buffer, kinetic from dmso stock, Solubility in medium, Lab 3) greater than 0.05 mg/mL. It also gave a solubility ([9]; aqueous buffer, kinetic from dmso stock, Solubility in medium, Lab 4) greater than 0.05 mg/mL, a solubility ([9]; organic solvent or mixture, thermodynamic from solid, Solubility in DMSO, Lab 1) greater than 50 mg/mL and a solubility ([9]; organic solvent or mixture, thermodynamic from solid, Solubility in DMSO, Lab 2) greater than 50 mg/mL. The solubility ([9]; organic solvent or mixture, thermodynamic from solid, Solubility in DMSO, Lab 3) was greater than 50 mg/mL, the solubility ([9]; organic solvent or mixture, thermodynamic from solid, Solubility in DMSO, Lab 4) was greater than 50 mg/mL and the “Antagonist classification per run, Lab 1” value ([6]; Lab 1, 3 runs) was “P P P”. For the same molecule, the “Antagonist classification per run, Lab 2” value ([6]; Lab 2, 3 runs) was “P P P”, the “Antagonist classification per run, Lab 3” value ([6]; Lab 3, 3 runs) was “P P P” and the “Antagonist classification per run, Lab 4” value ([6]; Lab 4, 3 runs) was “P P P”. The IC50 ([6]; logIC50 averaged over 4 labs, 3 valid runs per lab, read-out: Antagonist Overall logIC50 (converted)) was 1.38 µM, the “Agonist classification per run, Lab 1” value ([7]; Lab 1, 3 runs) was “N N N” and the “Agonist classification per run, Lab 2” value ([7]; Lab 2, 3 runs) was “N N N”. For the same molecule, the “Agonist classification per run, Lab 3” value ([7]; Lab 3, 3 runs) was “N N N” and the “Agonist classification per run, Lab 4” value ([7]; Lab 4, 3 runs) was “N N N”.
For C[C@]12CC[C@@H]3c4ccc(O)cc4CC[C@H]3[C@@H]1CC[C@@H]2O [17β-Estradiol], the “22Rv1/MMTV/GR-KO TA agonist result in words” value [1] is given as “AR agonist activity”, the “22Rv1/MMTV/GR-KO TA antagonist result in words” value [10] is given as “AR antagonist response” and the “AR-EcoScreen agonist result in words” value [2] is given as “AR agonist activity”.
With C[C@]12CC[C@@H]3c4ccc(O)cc4C[C@@H](CCCCCCCCC[S+]([O-])CCCC(F)(F)C(F)(F)F)[C@H]3[C@@H]1CC[C@@H]2O (some centres unmarked) [Fulvestrant] the “AR-CALUX antagonist result in words” value [6] was “false positive”, the “AR-CALUX Antagonist classification” value [6] was “N(FP)” and the “Scn (normalized dose response for the specificity control)” value [8] was greater than 80%. The “Classification Run1” value ([8]; antagonist) was “N(FP)”, the “Classification Run3” value ([8]; antagonist) was “N(FP)b” and the “Shift Direction of specificity control dose response” value [8] was “Right”.
